Experimental data: patent EP4722207A1, “OXOISOINDOLINYL-SUBSTITUTED TETRAHYDROPYRIMIDINEDIONE DERIVATIVE AND USE THEREOF” (Gluetacs Therapeutics (Shanghai) Co., Ltd., priority 2023, dated 2024)

Tests used:
Type in all cases: cell-based
WEE1 = target: T1, WEE1 (Homo sapiens, UniProt P30291+Q96SW2); test: Western-blot assay, substrate protein degradation in hPBMCs: WEE1; conditions: for substrate protein remaining % WEE1: 24 hours of compound treatment, 50 nM and 500 nM; for WEE1 substrate protein remaining %: compounds at 50 nM and 500 nM, 24 hours
T1 construct: effects of the compounds of the present disclosure on the expression of target proteins in cells; endogenous in cells; host or cells: human PBMCs (hPBMCs)

GSPT1 = target: T2, GSPT1 (Homo sapiens, UniProt P15170+Q96SW2); test: Western-blot assay, substrate protein degradation in hPBMCs: GSPT1; conditions: for substrate protein remaining % GSPT1: 24 hours of compound treatment, 50 nM and 500 nM; for GSPT1 substrate protein remaining %: compounds at 50 nM and 500 nM, 24 hours
T2 construct: effects of the compounds of the present disclosure on the expression of target proteins in cells; endogenous in cells; host or cells: human PBMCs (hPBMCs)

IKZF3 = target: T3, IKZF3 (Homo sapiens, UniProt Q96SW2+Q9UKT9); test: Western-blot assay, substrate protein degradation in hPBMCs: IKZF3; conditions: for substrate protein remaining % IKZF3: 24 hours of compound treatment, 50 nM and 500 nM; for IKZF3 substrate protein remaining %: compounds at 50 nM and 500 nM, 24 hours
T3 construct: effects of the compounds of the present disclosure on the expression of target proteins in cells; endogenous in cells; host or cells: human PBMCs (hPBMCs)

IKZF1 = target: T4, IKZF1 (Homo sapiens, UniProt Q13422+Q96SW2); test: Western-blot assay, substrate protein degradation in hPBMCs: IKZF1; conditions: for substrate protein remaining % IKZF1: 24 hours of compound treatment, 50 nM and 500 nM; for IKZF1 substrate protein remaining %: compounds at 50 nM and 500 nM, 24 hours
T4 construct: effects of the compounds of the present disclosure on the expression of target proteins in cells; endogenous in cells; host or cells: human PBMCs (hPBMCs)

CK1α = target: T5, CK1α (Homo sapiens, UniProt P48729+Q96SW2); test: Western-blot assay, substrate protein degradation in hPBMCs: CK1α; conditions: for substrate protein remaining % CK1α: 24 hours of compound treatment, 50 nM and 500 nM; for CK1α substrate protein remaining %: compounds at 50 nM and 500 nM, 24 hours
T5 construct: effects of the compounds of the present disclosure on the expression of target proteins in cells; endogenous in cells; host or cells: human PBMCs (hPBMCs)

IKZF2 = target: T6, IKZF2 (Homo sapiens, UniProt Q96SW2+Q9UKS7); test: Western-blot assay, substrate protein degradation in hPBMCs: IKZF2; conditions: for substrate protein remaining % IKZF2: 24 hours of compound treatment, 50 nM and 500 nM; for IKZF2 substrate protein remaining %: compounds at 50 nM and 500 nM, 24 hours
T6 construct: effects of the compounds of the present disclosure on the expression of target proteins in cells; endogenous in cells; host or cells: human PBMCs (hPBMCs)
T6 sequence (Q9UKS7 whole entry): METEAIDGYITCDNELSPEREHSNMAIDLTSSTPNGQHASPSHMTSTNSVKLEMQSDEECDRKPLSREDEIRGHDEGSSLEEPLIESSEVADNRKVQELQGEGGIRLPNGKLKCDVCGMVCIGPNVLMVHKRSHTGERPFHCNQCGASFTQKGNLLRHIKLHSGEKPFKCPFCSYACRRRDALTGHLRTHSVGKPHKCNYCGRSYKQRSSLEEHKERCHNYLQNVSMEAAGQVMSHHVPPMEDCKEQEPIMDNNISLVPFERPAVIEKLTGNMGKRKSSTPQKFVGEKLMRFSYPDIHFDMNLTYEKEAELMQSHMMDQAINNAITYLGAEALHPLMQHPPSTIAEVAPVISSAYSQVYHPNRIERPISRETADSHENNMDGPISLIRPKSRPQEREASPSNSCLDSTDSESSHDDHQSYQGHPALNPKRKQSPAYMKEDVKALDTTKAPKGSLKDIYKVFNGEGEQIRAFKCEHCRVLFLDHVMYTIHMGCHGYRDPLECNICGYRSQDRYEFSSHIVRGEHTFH
T6 sequence (Q96SW2 whole entry): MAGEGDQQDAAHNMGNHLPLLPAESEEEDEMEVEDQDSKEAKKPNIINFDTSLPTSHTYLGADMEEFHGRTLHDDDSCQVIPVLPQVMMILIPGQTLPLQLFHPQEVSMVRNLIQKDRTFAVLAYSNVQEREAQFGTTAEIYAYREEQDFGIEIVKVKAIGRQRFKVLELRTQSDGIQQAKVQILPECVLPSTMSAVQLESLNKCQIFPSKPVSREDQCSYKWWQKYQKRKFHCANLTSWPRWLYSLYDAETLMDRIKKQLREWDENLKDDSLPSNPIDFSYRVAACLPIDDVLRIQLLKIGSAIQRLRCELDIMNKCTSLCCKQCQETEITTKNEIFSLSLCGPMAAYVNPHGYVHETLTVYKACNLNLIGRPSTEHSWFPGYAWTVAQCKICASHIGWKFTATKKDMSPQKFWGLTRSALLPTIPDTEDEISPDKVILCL
T6 sequence (Q16531 whole entry partner): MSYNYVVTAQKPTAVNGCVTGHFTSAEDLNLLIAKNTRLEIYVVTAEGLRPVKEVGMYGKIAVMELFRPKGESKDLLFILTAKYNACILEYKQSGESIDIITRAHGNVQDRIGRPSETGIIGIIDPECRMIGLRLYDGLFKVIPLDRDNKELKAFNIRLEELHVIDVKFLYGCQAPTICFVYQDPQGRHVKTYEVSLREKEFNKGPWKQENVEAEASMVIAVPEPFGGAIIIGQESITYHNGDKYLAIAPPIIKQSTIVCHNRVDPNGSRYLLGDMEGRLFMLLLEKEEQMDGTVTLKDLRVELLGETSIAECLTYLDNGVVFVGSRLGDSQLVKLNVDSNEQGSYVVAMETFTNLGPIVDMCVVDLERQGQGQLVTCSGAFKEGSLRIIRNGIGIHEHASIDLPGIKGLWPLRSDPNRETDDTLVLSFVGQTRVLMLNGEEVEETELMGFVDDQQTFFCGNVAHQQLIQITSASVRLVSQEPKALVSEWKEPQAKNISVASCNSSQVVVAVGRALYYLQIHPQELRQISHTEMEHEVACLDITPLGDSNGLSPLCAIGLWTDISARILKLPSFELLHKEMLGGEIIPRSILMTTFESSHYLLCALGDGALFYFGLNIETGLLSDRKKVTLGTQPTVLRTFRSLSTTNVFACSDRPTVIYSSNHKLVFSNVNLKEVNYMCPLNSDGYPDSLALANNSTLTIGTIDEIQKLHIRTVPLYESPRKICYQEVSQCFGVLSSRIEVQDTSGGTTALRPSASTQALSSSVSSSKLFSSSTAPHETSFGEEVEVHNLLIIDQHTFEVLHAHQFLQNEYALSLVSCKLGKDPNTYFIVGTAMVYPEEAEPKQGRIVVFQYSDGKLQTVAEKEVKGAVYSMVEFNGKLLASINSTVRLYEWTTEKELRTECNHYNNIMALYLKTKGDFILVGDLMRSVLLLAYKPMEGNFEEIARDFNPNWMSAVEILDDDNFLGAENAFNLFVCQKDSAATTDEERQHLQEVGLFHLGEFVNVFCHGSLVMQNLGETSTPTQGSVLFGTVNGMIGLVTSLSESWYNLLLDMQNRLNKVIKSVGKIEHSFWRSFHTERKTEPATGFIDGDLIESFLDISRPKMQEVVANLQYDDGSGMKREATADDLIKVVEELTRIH

T3 sequence (Q9UKT9 whole entry): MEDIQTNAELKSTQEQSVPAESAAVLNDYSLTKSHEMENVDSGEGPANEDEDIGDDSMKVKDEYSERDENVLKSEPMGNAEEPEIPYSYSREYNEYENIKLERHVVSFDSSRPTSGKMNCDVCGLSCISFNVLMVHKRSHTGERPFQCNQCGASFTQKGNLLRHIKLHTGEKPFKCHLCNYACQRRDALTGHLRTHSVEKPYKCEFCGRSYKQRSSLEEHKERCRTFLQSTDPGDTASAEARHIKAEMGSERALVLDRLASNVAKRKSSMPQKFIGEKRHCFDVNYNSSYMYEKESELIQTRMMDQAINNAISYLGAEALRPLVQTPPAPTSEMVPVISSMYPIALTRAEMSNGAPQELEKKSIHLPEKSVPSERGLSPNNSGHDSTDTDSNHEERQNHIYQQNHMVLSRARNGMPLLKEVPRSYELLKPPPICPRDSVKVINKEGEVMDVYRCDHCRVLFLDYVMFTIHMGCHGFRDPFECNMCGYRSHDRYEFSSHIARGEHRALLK
T3 sequence (Q96SW2 whole entry): as the sequence (Q96SW2 whole entry) above
T3 sequence (Q16531 whole entry partner): as the sequence (Q16531 whole entry partner) above
T2 sequence (P15170 whole entry): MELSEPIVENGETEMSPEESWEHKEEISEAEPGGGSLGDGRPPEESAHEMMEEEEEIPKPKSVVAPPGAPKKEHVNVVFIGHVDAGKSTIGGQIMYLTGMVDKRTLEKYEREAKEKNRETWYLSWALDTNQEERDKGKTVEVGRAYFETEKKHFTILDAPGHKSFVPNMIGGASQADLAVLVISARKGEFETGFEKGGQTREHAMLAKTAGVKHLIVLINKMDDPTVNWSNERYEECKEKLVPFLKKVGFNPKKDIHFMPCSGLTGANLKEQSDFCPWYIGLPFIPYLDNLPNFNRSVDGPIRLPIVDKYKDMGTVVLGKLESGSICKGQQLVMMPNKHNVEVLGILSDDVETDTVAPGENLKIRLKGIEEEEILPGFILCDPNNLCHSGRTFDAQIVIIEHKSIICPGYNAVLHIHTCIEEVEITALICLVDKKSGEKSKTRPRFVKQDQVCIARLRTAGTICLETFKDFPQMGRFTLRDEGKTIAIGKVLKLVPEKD
T2 sequence (Q96SW2 whole entry): as the sequence (Q96SW2 whole entry) above
T2 sequence (Q16531 whole entry partner): as the sequence (Q16531 whole entry partner) above
T4 sequence (Q13422 whole entry): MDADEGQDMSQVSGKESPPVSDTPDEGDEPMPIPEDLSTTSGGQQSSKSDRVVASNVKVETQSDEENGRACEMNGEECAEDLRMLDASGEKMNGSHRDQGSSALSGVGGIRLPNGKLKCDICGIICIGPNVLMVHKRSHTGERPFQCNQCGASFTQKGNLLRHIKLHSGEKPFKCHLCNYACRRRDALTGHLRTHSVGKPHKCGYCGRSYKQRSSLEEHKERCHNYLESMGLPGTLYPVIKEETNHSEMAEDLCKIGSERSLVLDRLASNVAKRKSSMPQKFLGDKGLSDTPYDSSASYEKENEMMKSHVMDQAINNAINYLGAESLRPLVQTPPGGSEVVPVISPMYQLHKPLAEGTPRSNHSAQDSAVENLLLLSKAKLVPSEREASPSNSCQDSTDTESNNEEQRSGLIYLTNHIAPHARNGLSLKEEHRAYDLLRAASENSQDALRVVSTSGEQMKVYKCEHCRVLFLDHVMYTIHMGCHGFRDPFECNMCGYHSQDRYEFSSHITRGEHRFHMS
T4 sequence (Q96SW2 whole entry): as the sequence (Q96SW2 whole entry) above
T4 sequence (Q16531 whole entry partner): as the sequence (Q16531 whole entry partner) above
T5 sequence (P48729 whole entry): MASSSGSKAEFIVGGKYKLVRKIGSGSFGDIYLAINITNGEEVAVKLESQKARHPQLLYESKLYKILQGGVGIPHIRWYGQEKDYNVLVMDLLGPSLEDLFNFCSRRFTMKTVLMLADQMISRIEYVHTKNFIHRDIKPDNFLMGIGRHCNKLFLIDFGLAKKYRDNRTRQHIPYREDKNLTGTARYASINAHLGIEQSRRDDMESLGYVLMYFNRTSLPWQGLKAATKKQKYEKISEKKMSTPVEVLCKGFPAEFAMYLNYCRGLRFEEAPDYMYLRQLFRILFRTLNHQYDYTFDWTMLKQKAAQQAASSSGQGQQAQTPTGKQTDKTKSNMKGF
T5 sequence (Q96SW2 whole entry): as the sequence (Q96SW2 whole entry) above
T5 sequence (Q16531 whole entry partner): as the sequence (Q16531 whole entry partner) above

Compound | substrate protein remaining % WEE1 (WEE1) | substrate protein remaining % GSPT1 (GSPT1) | substrate protein remaining % IKZF3 (IKZF3) | substrate protein remaining % IKZF1 (IKZF1) | substrate protein remaining % CK1α (CK1α) | substrate protein remaining % IKZF2 (IKZF2) | WEE1 substrate protein remaining % (WEE1) | GSPT1 substrate protein remaining % (GSPT1) | IKZF3 substrate protein remaining % (IKZF3) | IKZF1 substrate protein remaining % (IKZF1) | CK1α substrate protein remaining % (CK1α) | IKZF2 substrate protein remaining % (IKZF2)
O=C1CCN(N2Cc3cc(CN4CCC(c5cccc6cnccc56)CC4)ccc3C2=O)C(=O)N1 [GT-07644, 1-(5-((4-(isoquinolin-5-yl)piperidin-1-yl)methyl)-1-oxoisoindolin-2-yl)dihydropyrimidine-2,4(1H,3H)-dione] | B (80%< substrate protein remaining %≤ 100%) | A (0% ≤ substrate protein remaining % ≤ 80%) | B (80%< substrate protein remaining %≤ 100%) | B (80%< substrate protein remaining %≤ 100%) | B (80%< substrate protein remaining %≤ 100%) | B (80%< substrate protein remaining %≤ 100%) |  |  |  |  |  | 
O=C1CCN(N2C(=O)c3ccc(CN4CCN(c5ccc(F)cc5)CC4)cc3C2=O)C(=O)N1 [GT-06725, 2-(2,4-dioxotetrahydropyrimidin-1(2H)-yl)-5-((4-(4-fluorophenyl)piperazin-1-yl)methyl)isoindoline-1,3-dione] |  |  |  |  |  |  | B ("B" is defined as 80%< substrate protein remaining %≤ 100%) | B ("B" is defined as 80%< substrate protein remaining %≤ 100%) | B ("B" is defined as 80%< substrate protein remaining %≤ 100%) | A ("A" is defined as 0% ≤ substrate protein remaining % ≤ 80%) | B ("B" is defined as 80%< substrate protein remaining %≤ 100%) | B ("B" is defined as 80%< substrate protein remaining %≤ 100%)
O=C1CCN(N2Cc3cc(CN4CCN(c5ccc(Cl)cc5Cl)CC4)ccc3C2=O)C(=O)N1 [GT-06772, 1-(5-((4-(2,4-dichlorophenyl)piperazin-1-yl)methyl)-1-oxoisoindolin-2-yl)dihydropyrimidine-2,4(1H,3H)-dione] |  |  |  |  |  |  | A ("A" is defined as 0% ≤ substrate protein remaining % ≤ 80%) | A ("A" is defined as 0% ≤ substrate protein remaining % ≤ 80%) | A ("A" is defined as 0% ≤ substrate protein remaining % ≤ 80%) | B ("B" is defined as 80%< substrate protein remaining %≤ 100%) | A ("A" is defined as 0% ≤ substrate protein remaining % ≤ 80%) | A ("A" is defined as 0% ≤ substrate protein remaining % ≤ 80%)
O=C1CCN(N2Cc3cc(CN4CCN(c5c(Cl)cccc5Cl)CC4)ccc3C2=O)C(=O)N1 [GT-06774, 1-(5-((4-(2,6-dichlorophenyl)piperazin-1-yl)methyl)-1-oxoisoindolin-2-yl)dihydropyrimidine-2,4(1H,3H)-dione] |  |  |  |  |  |  | B ("B" is defined as 80%< substrate protein remaining %≤ 100%) | A ("A" is defined as 0% ≤ substrate protein remaining % ≤ 80%) | A ("A" is defined as 0% ≤ substrate protein remaining % ≤ 80%) | B ("B" is defined as 80%< substrate protein remaining %≤ 100%) | A ("A" is defined as 0% ≤ substrate protein remaining % ≤ 80%) | A ("A" is defined as 0% ≤ substrate protein remaining % ≤ 80%)
Cc1cscc1C1=CCN(Cc2ccc3c(c2)C(=O)N(N2CCC(=O)NC2=O)C3=O)CC1 [GT-05316, 2-(2,4-dioxotetrahydropyrimidin-1(2H)-yl)-5-((4-(4-methylthiophen-3-yl)-3,6-dihydropyridin-1(2H)-yl)methyl)isoindoline-1,3-dione] |  |  |  |  |  |  | B ("B" is defined as 80%< substrate protein remaining %≤ 100%) | A ("A" is defined as 0% ≤ substrate protein remaining % ≤ 80%) | B ("B" is defined as 80%< substrate protein remaining %≤ 100%) | B ("B" is defined as 80%< substrate protein remaining %≤ 100%) | B ("B" is defined as 80%< substrate protein remaining %≤ 100%) | B ("B" is defined as 80%< substrate protein remaining %≤ 100%)
Cc1cscc1C1CCN(Cc2ccc3c(c2)CN(N2CCC(=O)NC2=O)C3=O)CC1 [GT-07372, 1-(5-((4-(4-methylthiophen-3-yl)piperidin-1-yl)methyl)-1-oxoisoindolin-2-yl)dihydropyrimidine-2,4(1H,3H)-dione] | B (80%< substrate protein remaining %≤ 100%) | A (0% ≤ substrate protein remaining % ≤ 80%) | A (0% ≤ substrate protein remaining % ≤ 80%) | B (80%< substrate protein remaining %≤ 100%) | B (80%< substrate protein remaining %≤ 100%) | B (80%< substrate protein remaining %≤ 100%) |  |  |  |  |  | 
O=C1CCN(N2C(=O)c3ccc(CN4CCN(c5cccc(Br)c5)CC4)cc3C2=O)C(=O)N1 [GT-06722, 5-((4-(3-bromophenyl)piperazin-1-yl)methyl)-2-(2,4-dioxotetrahydropyrimidin-1(2H)-yl)isoindoline-1,3-dione] |  |  |  |  |  |  | A ("A" is defined as 0% ≤ substrate protein remaining % ≤ 80%) | B ("B" is defined as 80%< substrate protein remaining %≤ 100%) | A ("A" is defined as 0% ≤ substrate protein remaining % ≤ 80%) | A ("A" is defined as 0% ≤ substrate protein remaining % ≤ 80%) | A ("A" is defined as 0% ≤ substrate protein remaining % ≤ 80%) | B ("B" is defined as 80%< substrate protein remaining %≤ 100%)
O=C1CCN(N2C(=O)c3ccc(CN4CC=C(c5n[nH]c6cc(F)ccc56)CC4)cc3C2=O)C(=O)N1 [GT-07643, 2-(2,4-dioxotetrahydropyrimidin-1(2H)-yl)-5-((4-(6-fluoro-1H-indazol-3-yl)-3,6-dihydropyridin-1(2H)-yl)methyl)isoindoline-1,3-dione] | B (80%< substrate protein remaining %≤ 100%) | A (0% ≤ substrate protein remaining % ≤ 80%) | B (80%< substrate protein remaining %≤ 100%) | B (80%< substrate protein remaining %≤ 100%) | B (80%< substrate protein remaining %≤ 100%) | B (80%< substrate protein remaining %≤ 100%) |  |  |  |  |  | 
C[C@@H]1CN(C(c2ccccc2)c2ccccc2)CCN1Cc1ccc2c(c1)CN(N1CCC(=O)NC1=O)C2=O [GT-06448, (R)-1-(5-((4-benzhydryl-2-methylpiperazin-1-yl)methyl)-1-oxoisoindolin-2-yl)dihydropyrimidine-2,4(1H,3H)-dione] |  |  |  |  |  |  | B ("B" is defined as 80%< substrate protein remaining %≤ 100%) | A ("A" is defined as 0% ≤ substrate protein remaining % ≤ 80%) | A ("A" is defined as 0% ≤ substrate protein remaining % ≤ 80%) | B ("B" is defined as 80%< substrate protein remaining %≤ 100%) | B ("B" is defined as 80%< substrate protein remaining %≤ 100%) | A ("A" is defined as 0% ≤ substrate protein remaining % ≤ 80%)
O=C1CCN(N2Cc3cc(CN4CCN(Cc5ccc(C67CC8CC(CC(C8)C6)C7)cc5)CC4)ccc3C2=O)C(=O)N1 [GT-07721, 1-(5-((4-(4-((3r,5r,7r)-adamantan-1-yl)benzyl)piperazin-1-yl)methyl)-1-oxoisoindolin-2-yl)dihydropyrimidine-2,4(1H,3H)-dione] | A (0% ≤ substrate protein remaining % ≤ 80%) | A (0% ≤ substrate protein remaining % ≤ 80%) | A (0% ≤ substrate protein remaining % ≤ 80%) | A (0% ≤ substrate protein remaining % ≤ 80%) | A (0% ≤ substrate protein remaining % ≤ 80%) | A (0% ≤ substrate protein remaining % ≤ 80%) |  |  |  |  |  | 
O=C1CCN(N2C(=O)c3ccc(CN4CCN(C(c5ccccc5)c5cccnc5)CC4)cc3C2=O)C(=O)N1 (stereo not drawn) [GT-06377, 2-(2,4-dioxotetrahydropyrimidin-1(2H)-yl)-5-((4-(phenyl(pyridin-3-yl)methyl)piperazin-1-yl)methyl)isoindoline-1,3-dione] |  |  |  |  |  |  | A ("A" is defined as 0% ≤ substrate protein remaining % ≤ 80%) | B ("B" is defined as 80%< substrate protein remaining %≤ 100%) | B ("B" is defined as 80%< substrate protein remaining %≤ 100%) | B ("B" is defined as 80%< substrate protein remaining %≤ 100%) | B ("B" is defined as 80%< substrate protein remaining %≤ 100%) | A ("A" is defined as 0% ≤ substrate protein remaining % ≤ 80%)
O=C1CCN(N2Cc3cc(CN4C5CC4CN(c4cccc(Cl)c4Cl)C5)ccc3C2=O)C(=O)N1 [GT-05162, 1-(5-((3-(2,3-dichlorophenyl)-3,6-diazabicyclo[3.1.1]heptan-6-yl)methyl)-1-oxoisoindolin-2-yl)dihydropyrimidine-2,4(1H,3H)-dione] |  |  |  |  |  |  | B ("B" is defined as 80%< substrate protein remaining %≤ 100%) | A ("A" is defined as 0% ≤ substrate protein remaining % ≤ 80%) | A ("A" is defined as 0% ≤ substrate protein remaining % ≤ 80%) | B ("B" is defined as 80%< substrate protein remaining %≤ 100%) | B ("B" is defined as 80%< substrate protein remaining %≤ 100%) | B ("B" is defined as 80%< substrate protein remaining %≤ 100%)
